Reference: ChEMBL document CHEMBL1671799, “Modelling topoisomerase I inhibition by minor groove binders” (Bioorg Med Chem, 2011)
The source made the active and inactive calls. No cut-off for these calls is given here.

Species: Bos taurus
Assay: Inhibition of calf thymus topoisomerase 1 relative to Hoechst 33342

| Structure (SMILES) | Ratio | inhibition |
| --- | --- | --- |
| COc1ccc(-c2nc3ccc(-c4nc5cc(-c6ccccc6)ccc5[nH]4)cc3[nH]2)cc1 | 40 | – |
| O=[N+]([O-])c1ccc2[nH]c(-c3ccc4nc(-c5ccc6nc[nH]c6c5)[nH]c4c3)nc2c1 | 0.5 | – |
| COc1ccc(-c2nc3ccc([N+](=O)[O-])cc3s2)cc1 | – | inactive |
| Cc1ccccc1-c1nc2cc(-c3nc4cc(C#N)ccc4[nH]3)ccc2[nH]1 | > 500 | – |
| c1cncc(-c2ccc3[nH]c(-c4ccc5[nH]c(-c6ccc7[nH]cnc7c6)nc5c4)nc3c2)c1 | 2 | – |
| c1ccc(-c2ccc3[nH]c(-c4ccc5[nH]c(-c6ccc7[nH]nnc7c6)nc5c4)nc3c2)cc1 | 1 | – |
| COc1ccc(-c2nc3cc(C#N)ccc3[nH]2)cc1 | > 300000 | – |
| N#Cc1ccc2[nH]c(-c3ccc4[nH]c(-c5ccc6ccccc6c5)nc4c3)nc2c1 | 10 | – |
| Fc1ccc2[nH]c(-c3ccc4nc(-c5ccc6nc[nH]c6c5)[nH]c4c3)nc2c1 | 0.05 | – |
| COc1cc2nc(-c3ccc4nc(-c5ccc6nc[nH]c6c5)[nH]c4c3)[nH]c2cc1Br | 2 | – |
| c1ccc2c(-c3ccc4[nH]c(-c5ccc6nc[nH]c6c5)nc4c3)cccc2c1 | 4 | – |
| Clc1ccc(-c2ccc3[nH]c(-c4ccc5nc[nH]c5c4)nc3c2)cc1 | 4 | – |
| c1ccc(-c2cc3nc(-c4ccc5nc(-c6ccc7nc[nH]c7c6)[nH]c5c4)[nH]c3cc2-c2ccccc2)cc1 | 1 | – |
| Brc1ccc2[nH]c(-c3ccc4nc(-c5ccc6nc[nH]c6c5)[nH]c4c3)nc2c1 | 1 | – |
| COc1ccc(-c2nc3cc(-c4nc5cc(OC6CCN(C)CC6)ccc5[nH]4)ccc3[nH]2)cc1 | 2 | – |
| COc1ccc(-c2cc3cc([N+](=O)[O-])ccc3[nH]2)cc1 | – | inactive |
| Nc1ccc2[nH]c(-c3ccc4nc(-c5ccc6nc[nH]c6c5)[nH]c4c3)nc2c1 | 1 | – |
| c1ccc(-c2cccc3[nH]c(-c4ccc5nc[nH]c5c4)nc23)cc1 | 10 | – |
| COc1ccc(-c2nc3cc(C(N)=O)ccc3[nH]2)cc1 | 3000 | – |

| Structure (SMILES) | Ratio | inhibition |
| --- | --- | --- |
| Cc1nc2ccc(-c3nc4cc(-c5ccccc5)ccc4[nH]3)cc2[nH]1 | 4 | – |
| N#Cc1ccc2[nH]c(-c3ccc4[nH]c(-c5cccc6ccccc56)nc4c3)nc2c1 | 10 | – |
| COc1ccc(-c2nc3cc(-c4nc5cc(N)ccc5[nH]4)ccc3[nH]2)cc1 | 100 | – |
| c1cc(-c2ccc3[nH]c(-c4ccc5[nH]c(-c6ccc7[nH]cnc7c6)nc5c4)nc3c2)ccn1 | 2 | – |
| CCc1nc2ccc(-c3nc4cc(-c5ccccc5)ccc4[nH]3)cc2[nH]1 | 2 | – |
| Cc1ccccc1-c1nc2cc(-c3nc4cc(N5CCN(C)CC5)ccc4[nH]3)ccc2[nH]1 | 10 | – |
| Clc1ccc2[nH]c(-c3ccc4nc(-c5ccc6nc[nH]c6c5)[nH]c4c3)nc2c1 | 1 | – |
| FC(F)(F)c1nc2ccc(-c3nc4ccc(-c5nc6cc(Br)c(Br)cc6[nH]5)cc4[nH]3)cc2[nH]1 | 1 | – |
| NC(=O)c1ccc2[nH]c(-c3ccc4[nH]c(-c5cccc6ccccc56)nc4c3)nc2c1 | 20 | – |
| COc1ccc(-c2nc3cc(C(=O)O)ccc3[nH]2)cc1 | > 300000 | – |
| c1ccc(-c2ccc3[nH]c(-c4ccc5[nH]c(-c6ccc7[nH]cnc7c6)nc5c4)nc3c2)nc1 | 3.3 | – |
| COc1ccc(-c2nc3cc(CN)ccc3[nH]2)cc1 | > 300000 | – |
| c1ccc(-c2ccc3[nH]c(-c4ccc5[nH]c(-c6ccc7cc[nH]c7c6)nc5c4)nc3c2)cc1 | 5 | – |
| COc1ccc(-c2nc3cc(-c4nc5cc(N(C)C)ccc5[nH]4)ccc3[nH]2)cc1 | 1000 | – |
| COc1ccc(-c2cc3ccc([N+](=O)[O-])cc3[nH]2)cc1 | – | inactive |
| COc1ccc(-c2nc3cc(-c4nc5cc(CN(C)C)ccc5[nH]4)ccc3[nH]2)cc1 | 2.5 | – |
| c1ccc(-c2ccc3[nH]c(-c4ccc5[nH]c(-c6ccc7[nH]ccc7c6)nc5c4)nc3c2)cc1 | 50 | – |
| COc1ccc(-c2nc3ccc([N+](=O)[O-])cc3o2)cc1 | – | inactive |
| COc1ccc(-c2nc3cc([N+](=O)[O-])ccc3s2)cc1 | – | inactive |

| Structure (SMILES) | Ratio | inhibition |
| --- | --- | --- |
| Cc1cccc(-c2nc3cc(-c4nc5cc(C(N)=O)ccc5[nH]4)ccc3[nH]2)c1 | 100 | – |
| COc1ccc(-c2nc3cc(-c4nc5cc(-c6nc7cc(C#N)ccc7[nH]6)ccc5[nH]4)ccc3[nH]2)cc1 | 1000 | – |
| Cc1ccc(-c2nc3cc(-c4nc5cc(C(N)=O)ccc5[nH]4)ccc3[nH]2)cc1 | 10 | – |
| COc1ccc(-c2nc3cc(CO)ccc3[nH]2)cc1 | 30000 | – |
| Cc1ccc(-c2nc3cc(-c4nc5cc(C#N)ccc5[nH]4)ccc3[nH]2)cc1 | 1 | – |
| FC(F)(F)c1nc2ccc(-c3nc4ccc(-c5nc6ccc(-c7ccc(Cl)cc7)cc6[nH]5)cc4[nH]3)cc2[nH]1 | 1 | – |
| COc1ccc(-c2nc3ccccc3[nH]2)cc1 | > 300000 | – |
| COc1ccc(-c2nc3cc(-c4nc5cc(C#N)ccc5[nH]4)ccc3[nH]2)cc1 | 3.3 | – |
| c1ccc(-c2ccc3[nH]c(-c4ccc5[nH]c(-c6ccc7[nH]cnc7c6)nc5c4)nc3c2)cc1 | 1 | – |
| COc1ccc(-c2nc3cc(Br)ccc3[nH]2)cc1 | > 300000 | – |
| c1ccc2[nH]c(-c3ccc4[nH]c(-c5ccc6[nH]cnc6c5)nc4c3)nc2c1 | 1.1 | – |
| COc1ccc(-c2nc3c([N+](=O)[O-])cccc3[nH]2)cc1 | > 300000 | – |
| Cc1ccccc1-c1nc2cc(-c3nc4cc(C(N)=O)ccc4[nH]3)ccc2[nH]1 | 100 | – |
| NC(=O)c1ccc2[nH]c(-c3ccc4[nH]c(-c5ccccc5)nc4c3)nc2c1 | 10 | – |
| N#Cc1ccc2[nH]c(-c3ccc4[nH]cnc4c3)nc2c1 | 1000 | – |
| c1ccc2cc3[nH]c(-c4ccc5nc[nH]c5c4)nc3cc2c1 | 2000 | – |
| COc1cc2nc(-c3ccc4nc(-c5ccc6nc[nH]c6c5)[nH]c4c3)[nH]c2cc1-c1ccccc1 | 0.5 | – |
| Cc1cccc(-c2nc3cc(-c4nc5cc(N6CCN(C)CC6)ccc5[nH]4)ccc3[nH]2)c1 | 1 | – |
| Cc1ccc(-c2nc3cc(-c4nc5cc(N6CCN(C)CC6)ccc5[nH]4)ccc3[nH]2)cc1 | 1 | – |

Next, values leading:

| Ratio | inhibition | Structure (SMILES) |
| --- | --- | --- |
| 10 | – | c1ccc2c(-c3ccc4[nH]c(-c5ccc6[nH]c(-c7ccc8[nH]cnc8c7)nc6c5)nc4c3)cccc2c1 |
| 1 | – | Oc1nc2ccc(-c3nc4ccc(-c5nc6ccc(Br)cc6[nH]5)cc4[nH]3)cc2[nH]1 |
| 10 | – | c1ccc2cc(-c3ccc4[nH]c(-c5ccc6[nH]c(-c7ccc8[nH]cnc8c7)nc6c5)nc4c3)ccc2c1 |
| 2 | – | COc1ccc(-c2nc3cc(-c4nc5cc(CCCN(C)C)ccc5[nH]4)ccc3[nH]2)cc1 |
| 10 | – | CN1CCN(c2ccc3[nH]c(-c4ccc5[nH]c(-c6ccc7ccccc7c6)nc5c4)nc3c2)CC1 |
| 2 | – | c1ccc2cc(-c3ccc4[nH]c(-c5ccc6nc[nH]c6c5)nc4c3)ccc2c1 |
| 5 | – | COc1ccc(-c2nc3cc(-c4nc5cc(CCN(C)C)ccc5[nH]4)ccc3[nH]2)cc1 |
| 0.1 | – | N#Cc1ccc2[nH]c(-c3ccc4[nH]c(-c5ccc6[nH]cnc6c5)nc4c3)nc2c1 |
| 1000 | – | COc1ccc(-c2nc3cc(-c4nc5cc([N+](=O)[O-])ccc5[nH]4)ccc3[nH]2)cc1 |
| 300 | – | COc1ccc(-c2nc3cc([N+](=O)[O-])ccc3[nH]2)cc1 |
| 1 | – | COc1ccc(-c2ccc3[nH]c(-c4ccc5nc[nH]c5c4)nc3c2)cc1 |
| 0.5 | – | CCCc1ccc2[nH]c(-c3ccc4[nH]c(-c5ccc6[nH]cnc6c5)nc4c3)nc2c1 |
| 0.5 | – | Oc1ccc2[nH]c(-c3ccc4nc(-c5ccc6nc[nH]c6c5)[nH]c4c3)nc2c1 |
| 1 | – | CCCc1nc2ccc(-c3nc4cc(-c5ccccc5)ccc4[nH]3)cc2[nH]1 |
| 40 | – | c1ccc(-c2ccc3[nH]c(-c4ccc5nc(-c6ccccc6)[nH]c5c4)nc3c2)cc1 |
| 1 | – | CC(C)c1nc2ccc(-c3nc4cc(-c5ccccc5)ccc4[nH]3)cc2[nH]1 |
| 20 | – | CN1CCN(c2ccc3[nH]c(-c4ccc5[nH]c(-c6cccc7ccccc67)nc5c4)nc3c2)CC1 |

| Ratio | inhibition | Structure (SMILES) |
| --- | --- | --- |
| 1 | – | CCCc1nc2ccc(-c3nc4ccc(-c5nc6ccc(Br)cc6[nH]5)cc4[nH]3)cc2[nH]1 |
| > 100 | – | c1ccc(-c2ccc3[nH]c(-c4ccc5[nH]c(-c6ccc7nccnc7c6)nc5c4)nc3c2)cc1 |
| 1 | – | Clc1nc2ccc(-c3nc4ccc(-c5nc6cc(Br)c(Br)cc6[nH]5)cc4[nH]3)cc2[nH]1 |
| 0.05 | – | COc1ccc2[nH]c(-c3ccc4nc(-c5ccc6nc[nH]c6c5)[nH]c4c3)nc2c1 |
| 300 | – | COc1ccc(-c2nc3cc(C=O)ccc3[nH]2)cc1 |
| 1 | – | Brc1cc2nc(-c3ccc4nc(-c5ccc6nc[nH]c6c5)[nH]c4c3)[nH]c2cc1Br |
| 2 | – | c1ccc2c(c1)ccc1[nH]c(-c3ccc4nc[nH]c4c3)nc12 |
| 2 | – | c1ccc(-c2ccc3[nH]c(-c4ccc5nc[nH]c5c4)nc3c2)cc1 |
| > 100 | – | N#Cc1ccc2[nH]c(-c3ccc4[nH]c(-c5ccccc5)nc4c3)nc2c1 |
| 1 | – | COc1ccc(-c2nc3cc(-c4nc5cc(N6CCN(C)CC6)ccc5[nH]4)ccc3[nH]2)cc1 |
| 100 | – | NC(=O)c1ccc2[nH]c(-c3ccc4[nH]c(-c5ccc6ccccc6c5)nc4c3)nc2c1 |
| 0.5 | – | c1nc2ccc(-c3nc4ccc(-c5nc6cc(N7CCCCC7)ccc6[nH]5)cc4[nH]3)cc2[nH]1 |
| – | inactive | COc1ccc(-c2nc3cc([N+](=O)[O-])ccc3o2)cc1 |
| 100 | – | Cc1cccc(-c2nc3cc(-c4nc5cc(C#N)ccc5[nH]4)ccc3[nH]2)c1 |
| 1 | – | CN1CCN(c2ccc3[nH]c(-c4ccc5[nH]c(-c6ccccc6)nc5c4)nc3c2)CC1 |
| 1 | – | Oc1nc2ccc(-c3nc4cc(-c5nc6cc(-c7ccccc7)ccc6[nH]5)ccc4[nH]3)cc2nc1O |
